# Laboratory results reported in ChEMBL document CHEMBL1137072, “Peptide deformylase inhibitors with activity against respiratory tract pathogens” (Bioorg Med Chem Lett, 2004).
# Several values for one entry are separate records, joined by “and”; a condition that tells them apart may be missing. Identical values can stand only once.
# Experiments:
# Peptide deformylase = target: T1, Peptide deformylase (Escherichia coli, UniProt Q9JN24); assay: Inhibitory activity against Escherichia coli peptide deformylase (PDF) Nickel containing enzyme
# T1 sequence (Q9JN24 whole entry): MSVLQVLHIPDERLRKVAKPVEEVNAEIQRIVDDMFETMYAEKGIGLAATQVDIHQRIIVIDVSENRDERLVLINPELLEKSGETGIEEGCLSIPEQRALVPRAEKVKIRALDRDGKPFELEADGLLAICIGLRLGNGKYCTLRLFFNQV
# Moraxella catarrhalis [1] = assay: Minimum inhibitory concentration required for primary screening against in-house strain of Moraxella catarrhalis tested in vitro; Range- 0.015-0.12; format: functional
# Moraxella catarrhalis [2] = assay: Minimum inhibitory concentration required for primary screening against in-house strain of Moraxella catarrhalis tested in vitro; format: functional
# Streptococcus pneumoniae [3] = assay: Minimum inhibitory concentration required for primary screening against in-house strain of Streptococcus pneumoniae tested in vitro; Range- 0.25-0.5; format: functional
# Staphylococcus capitis = assay: Minimum inhibitory concentration required for primary screening against in-house strain of Staphylococcus capitis tested in vitro; format: functional
# Streptococcus pneumoniae [4] = assay: Minimum inhibitory concentration required for primary screening against in-house strain of Streptococcus pneumoniae tested in vitro; Range- 0.25-2; format: functional
# Haemophilus influenzae [5] = assay: Minimum inhibitory concentration required for primary screening against in-house strain of Haemophilus influenzae tested in vitro; Range- 0.06->/=16; format: functional
# Escherichia coli = assay: Minimum inhibitory concentration required for primary screening against in-house strain of Escherichia coli tested in vitro; format: functional
# Haemophilus influenzae [6] = assay: Minimum inhibitory concentration required for primary screening against in-house strain of Haemophilus influenzae tested in vitro; Range- 0.5-1; format: functional
# Moraxella catarrhalis [7] = assay: Minimum inhibitory concentration required for primary screening against in-house strain of Moraxella catarrhalis tested in vitro; Range- 0.125-0.25; format: functional
# Haemophilus influenzae [8] = assay: Minimum inhibitory concentration required for primary screening against in-house strain of Haemophilus influenzae tested in vitro; Range- 0.5-2; format: functional
# Streptococcus pneumoniae [9] = assay: Minimum inhibitory concentration required for primary screening against in-house strain of Streptococcus pneumoniae tested in vitro; Range- 0.25-0.5
# Haemophilus influenzae [10] = assay: Minimum inhibitory concentration required for primary screening against in-house strain of Haemophilus influenzae tested in vitro; Range- 0.25-2; format: functional
# Streptococcus pneumoniae [11] = assay: Minimum inhibitory concentration required for primary screening against in-house strain of Streptococcus pneumoniae tested in vitro; Range- 1-2; format: functional
# Streptococcus pneumoniae [12] = assay: Minimum inhibitory concentration required for primary screening against in-house strain of Streptococcus pneumoniae tested in vitro; Range- <0.125-0.25; format: functional
# Haemophilus influenzae [13] = assay: Minimum inhibitory concentration required for primary screening against in-house strain of Haemophilus influenzae tested in vitro; Range- 0.125-2; format: functional
# Streptococcus pneumoniae [14] = assay: Minimum inhibitory concentration required for primary screening against in-house strain of Streptococcus pneumoniae tested in vitro; format: functional
# Moraxella catarrhalis [15] = assay: microbe, parasite or virus in culture
# Haemophilus influenzae [16] = assay: microbe, parasite or virus in culture
# Description: Minimum inhibitory concentration required for primary screening against in-house strain of Haemophilus influenzae tested in vitro; Range- 0.004-1
# Streptococcus pneumoniae [17] = assay: microbe, parasite or virus in culture
# Description: Minimum inhibitory concentration required for primary screening against in-house strain of Streptococcus pneumoniae tested in vitro; Range- 0.2-128
# Haemophilus influenzae [18] = assay: Minimum inhibitory concentration required for primary screening against in-house strain of Haemophilus influenzae tested in vitro; Range- 0.5-4; format: functional
# Haemophilus influenzae [19] = assay: Minimum inhibitory concentration required for primary screening against in-house strain of Haemophilus influenzae tested in vitro; Range- 0.125-4; format: functional
# Streptococcus pneumoniae [20] = assay: Minimum inhibitory concentration required for primary screening against in-house strain of Streptococcus pneumoniae tested in vitro; Range- 0.5-1; format: functional
structure (smiles),measurement,setting,value
CCCC[C@H](CN(O)C=O)C(=O)N[C@H](C(=O)c1ccc(O)cc1)C(C)(C)C,IC50,Peptide deformylase,8 nM
CC(C)(C)[C@H](NC(=O)[C@H](CC1CCCC1)CN(O)C=O)C(=O)c1cc2ccccc2o1,IC50,Peptide deformylase,4 nM
CC(C)(C)[C@H](NC(=O)[C@H](CC1CCCC1)CN(O)C=O)C(=O)c1ccc(N2CCOCC2)cc1,MIC90,Moraxella catarrhalis [1],0.12 µg/mL
same,MIC,Moraxella catarrhalis [2],0.125 µg/mL
same,MIC,Streptococcus pneumoniae [3],< 0.5 µg/mL
same,MIC,Staphylococcus capitis,1.5 µM
same,IC50,Peptide deformylase,6 nM and 2 nM
same,MIC90,Streptococcus pneumoniae [4],< 2 µg/mL
same,MIC90,Haemophilus influenzae [5],4 µg/mL
same,MIC,Escherichia coli,12.5 µM
same,MIC,Haemophilus influenzae [6],< 1 µg/mL
CC(C)(C)[C@H](NC(=O)[C@H](CC1CCCC1)CN(O)C=O)C(=O)c1ccc(N2CCN(CCN3CCCC3)CC2)cc1,MIC,Moraxella catarrhalis [7],< 0.25 µg/mL
same,IC50,Peptide deformylase,3 nM
same,MIC,Haemophilus influenzae [8],< 2 µg/mL
same,MIC,Streptococcus pneumoniae [9],< 0.5 µg/mL
CCCC[C@H](CN(O)C=O)C(=O)N[C@H](C(=O)c1ccc(N2CCOCC2)cc1)C(C)(C)C,IC50,Peptide deformylase,5 nM
CC(C)(C)[C@H](NC(=O)[C@H](CC1CCCC1)CN(O)C=O)C(=O)c1ccc(N2CCN(CCO)CC2)cc1,MIC,Haemophilus influenzae [10],< 2 µg/mL
same,MIC,Moraxella catarrhalis [2],< 0.125 µg/mL
same,IC50,Peptide deformylase,2 nM
same,MIC,Streptococcus pneumoniae [11],< 2 µg/mL
CC(C)(C)[C@H](NC(=O)[C@H](CC1CCCC1)CN(O)C=O)C(=O)c1ccc(N2CCC[C@H]2CO)cc1,MIC,Haemophilus influenzae [10],< 2 µg/mL
same,MIC,Moraxella catarrhalis [2],< 0.125 µg/mL
same,IC50,Peptide deformylase,7 nM
same,MIC,Streptococcus pneumoniae [12],< 0.25 µg/mL
CC(C)(C)[C@H](NC(=O)[C@H](CC1CCCC1)CN(O)C=O)C(=O)c1ccc(N2CCC(O)CC2)c(F)c1,MIC,Haemophilus influenzae [13],< 2 µg/mL
same,MIC,Moraxella catarrhalis [2],< 0.125 µg/mL
same,IC50,Peptide deformylase,2 nM
same,MIC,Streptococcus pneumoniae [14],0.25 µg/mL
CCCC[C@H](CN(O)C=O)C(=O)N[C@H](C(C)=O)C(C)(C)C,MIC,Staphylococcus capitis,100 µM
same,MIC,Escherichia coli,25 µM
O=C(O)c1cn(C2CC2)c2cc(N3CCNCC3)c(F)cc2c1=O [CIPROFLOXACIN],MIC90,Moraxella catarrhalis [15],0.06 µg/mL
same,MIC90,Haemophilus influenzae [16],0.015 µg/mL
same,MIC90,Streptococcus pneumoniae [17],8 µg/mL
CCCC[C@H](CN(O)C=O)C(=O)N[C@H](C(=O)c1ccc(NS(C)(=O)=O)cc1)C(C)(C)C,IC50,Peptide deformylase,4 nM
CC(C)(C)[C@H](NC(=O)[C@H](CC1CCCC1)CN(O)C=O)C(=O)c1ccc(N2CCOCC2)c(F)c1,MIC,Moraxella catarrhalis [2],< 0.125 µg/mL
same,IC50,Peptide deformylase,0.6 nM
same,MIC,Haemophilus influenzae [18],< 4 µg/mL
same,MIC,Streptococcus pneumoniae [14],0.25 µg/mL
CCCC[C@H](CN(O)C=O)C(=O)N[C@H](C(=O)c1ccco1)C(C)(C)C,IC50,Peptide deformylase,5 nM
CC(C)(C)[C@H](NC(=O)[C@H](CC1CCCC1)CN(O)C=O)C(=O)c1ccc(N2CCN(CCN3CCOCC3)CC2)c(F)c1,MIC,Moraxella catarrhalis [2],0.125 µg/mL
same,MIC,Streptococcus pneumoniae [3],< 0.5 µg/mL
same,IC50,Peptide deformylase,6 nM
same,MIC,Haemophilus influenzae [19],< 4 µg/mL
CC(C)(C)[C@H](NC(=O)[C@H](CC1CCCC1)CN(O)C=O)C(=O)c1cc(F)c(F)cc1N1CCN(CCO)CC1,MIC,Haemophilus influenzae [10],< 2 µg/mL
same,MIC,Moraxella catarrhalis [2],< 0.125 µg/mL
same,MIC,Streptococcus pneumoniae [20],< 1 µg/mL
same,IC50,Peptide deformylase,2 nM
CCCC[C@H](CN(O)C=O)C(=O)N[C@H](C(=O)c1ccc(F)cc1)C(C)(C)C,IC50,Peptide deformylase,3 nM
CCCC[C@H](CN(O)C=O)C(=O)N[C@H](C(=O)c1cc2ccccc2o1)C(C)(C)C,MIC,Staphylococcus capitis,1.5 µM
same,IC50,Peptide deformylase,4 nM
CC(C)(C)[C@H](NC(=O)[C@H](CC1CCCC1)CN(O)C=O)C(=O)c1ccc(S(C)(=O)=O)cc1,MIC,Staphylococcus capitis,6.25 µM
same,IC50,Peptide deformylase,10 nM
same,MIC,Escherichia coli,25 µM
CCCC[C@H](CN(O)C=O)C(=O)N[C@H](C(=O)c1ccc(NC(C)=O)cc1)C(C)(C)C,IC50,Peptide deformylase,8 nM
same,MIC,Escherichia coli,12 µM
COc1ccc(C(=O)[C@@H](NC(=O)[C@H](CC2CCCC2)CN(O)C=O)C(C)(C)C)cc1,IC50,Peptide deformylase,3 nM
CCCC[C@H](CN(O)C=O)C(=O)N[C@H](C(=O)c1ccc(OC)cc1)C(C)(C)C,IC50,Peptide deformylase,1 nM
